Results on 2 compounds are retold here after paper PMC10622847 (2023).

Each structure is given as a SMILES string.

Assay [1] relates to WT Eco riboswitch 36-mer, biotinylated (RNA, riboswitch) AUUGGGUUCCCUCACCCCAAUGGUUAAUCAAAAAGG
Nature of the assay: SPR kinetics (1:1 fit). Particulars: Na+ 100 mM, Mg2+ 3 mM; 10 mM Na-HEPES pH 7.5, 25 °C; apparent.

Assay [2] relates to Eco 30-mer (crystal construct) (RNA, riboswitch) UUGGGUUCCCUCACCCCAAUCAUAAAAAGG
Nature of the assay: ITC. Particulars: 10 μM RNA in cell, 100 μM preQ1 in syringe; buffer as in cited work.

Assay [3] has the same test system. Kind of assay: X-ray crystallography (2.30 Å, Mn2+ SAD). Particulars: Mn2+ 5 mM, K+ 100 mM, Mg2+ 2 mM (well solution); Na-cacodylate pH 6.0, spermine, MPD, 20 °C.
Assay [4] relates to G6DAP/C16U (RNA, riboswitch, 2,6-diaminopurine at 6) AUUGGGUUCCCUCACUCCAAUGGUUAAUCAAAAAGG
Nature of the assay: SPR steady state (one-site fit). Particulars: Na+ 100 mM, Mg2+ 3 mM; 10 mM Na-HEPES pH 7.5, 25 °C; preQ1 1.25 to 200 μM.

Assay [5] concerns U7C (RNA, riboswitch) AUUGGGCUCCCUCACCCCAAUGGUUAAUCAAAAAGG
Kind of assay: SPR steady state (one-site fit). Particulars: Na+ 100 mM, Mg2+ 3 mM; 10 mM Na-HEPES pH 7.5, 25 °C; preQ1 9.7 to 10,000 μM; text gives 4.2 ± 0.3 mM.

For assay [6], the system named is C15U (RNA, riboswitch) AUUGGGUUCCCUCAUCCCAAUGGUUAAUCAAAAAGG
Nature of the assay: SPR steady state (one-site fit). The following applies: Na+ 100 mM, Mg2+ 3 mM; 10 mM Na-HEPES pH 7.5, 25 °C; preQ1 9.7 to 10,000 μM.

The subject of assay [7] is Eco 34-mer (linker ΔGG) (RNA, riboswitch) AUUGGGUUCCCUCACCCCAAUUUAAUCAAAAAGG
Nature of the assay: ITC. Particulars: 10 μM RNA in cell, 100 μM preQ1 in syringe; buffer as in cited work.

Assay [8] relates to Eco 33-mer (linker ΔGGU) (RNA, riboswitch) AUUGGGUUCCCUCACCCCAAUUAAUCAAAAAGG
Nature of the assay: ITC. The following applies: 10 μM RNA in cell, 100 μM preQ1 in syringe; buffer as in cited work.

For assay [9], the system named is WT Eco riboswitch 36-mer (RNA, riboswitch) AUUGGGUUCCCUCACCCCAAUGGUUAAUCAAAAAGG
Kind of assay: ITC. Particulars: 10 μM RNA in cell, 100 μM preQ1 in syringe; buffer as in cited work.

Assay [10] relates to Eco 35-mer (linker ΔG) (RNA, riboswitch) AUUGGGUUCCCUCACCCCAAUGUUAAUCAAAAAGG
Kind of assay: ITC. The following applies: 10 μM RNA in cell, 100 μM preQ1 in syringe; buffer as in cited work.

Regarding `N#Cc1c[nH]c2nc(N)[nH]c(=O)c12`, in assay [1], the KD was 15,970 ± 2260 nM.
Take `NCc1c[nH]c2nc(N)[nH]c(=O)c12`: the KD in assay [2] is recorded as 51.9 ± 1.8 nM; in assay [4], 77,390 ± 5880 nM; in assay [5], 4,220,000 ± 33,000 nM; in assay [1] it was 120 ± 6 nM; in assay [6] it was 7,682,000 ± 206,000 nM; in assay [7] it was 14.0 ± 1.6 nM. For the same compound, the KD turned out to be 30.2 ± 1.3 nM in assay [8], 57.9 ± 1.5 nM in assay [9] and 33.4 ± 1.9 nM in [10]. In addition, the binding entry in [3] was “yes”.
